In article PMC8589628, “Characterization and Antimicrobial Studies of Iturin-Like and Bogorol-Like Lipopeptides From Brevibacillus spp. Strains GI9 and SKDU10” (Frontiers in Microbiology, 2021):
Read-outs that look alike come from different tables or passages of the source. Peptide text beside a SMILES is read from it. * marks the point of attachment. X1 = CC(C)CCCCCCCCCCCCC(=O)*

Key:
[1] = tested on: L. monocytogenes MTCC 839; assay type: cell-based, Listeria monocytogenes
Description: (§1) The antimicrobial activity of HPLC purified compounds was determined against various test strains including S. aureus MTCC 1430, Vibrio cholera MTCC 3904, Bacillus subtilis MTCC 121, Listeria monocytogenes MTCC 839, C. albicans MTCC 183, C. albicans MTCC 1637, C. albicans MTCC 227, C. tropicalis MTCC 184, C. glabrata MTCC 3019, and C. inconspicua MTCC 1074. Antimicrobial activity was also tested against clinical Candida strains and phytopathogenic fungi viz. Fusarium moniliforme MTCC 158, Alternaria brassicicola MTCC 2102 and Colletotrichum acutatum MTCC 1037. Bacterial and Candida test strains were grown in NB and yeast malt broth (YMB), respectively. Fungal test strains were grown in potato dextrose broth (PDB). Minimum inhibitory concentrations (MICs) of purified compounds were evaluated against test organisms by using a microtiter plate dilution assay. Mid-log-phase test strains (5 × 10^5 CFU/ml) were incubated in a 96-well plate with different concentrations of the lipopeptides for 24–48 h at 37°C (final volume of 200 μl). OD was measured at 600 nm after 24 and 48 h for bacteria and yeast, respectively, using an ELISA microplate reader (Thermo Scientific, United States). MIC against phytopathogenic fungi was determined using the 96-well microtiter plate method ([Sharma et al., 2020]).

[2] = tested on: V. cholerae MTCC 3904; assay type: cell-based, Vibrio cholera
Description: as §1

[3] = tested on: C. glabrata MTCC 3019; assay: MIC, microtiter plate dilution assay; assay type: cell-based; conditions: YMB, 5 × 10^5 CFU/ml, 37°C, OD 600 nm after 48 h
Description: as §1

[4] = tested on: C. haemulonii MTCC 2766; assay: MIC, microtiter plate dilution assay; assay type: cell-based; conditions: YMB, 5 × 10^5 CFU/ml, 37°C, OD 600 nm after 48 h
Description: as §1

[5] = tested on: C. tropicalis MTCC 184; assay: MIC, microtiter plate dilution assay; assay type: cell-based; conditions: YMB, 5 × 10^5 CFU/ml, 37°C, OD 600 nm after 48 h
Description: as §1

[6] = tested on: C. inconspicua MTCC 1074; assay: MIC, microtiter plate dilution assay; assay type: cell-based; conditions: YMB, 5 × 10^5 CFU/ml, 37°C, OD 600 nm after 48 h
Description: as §1

[7] = tested on: C. albicans MTCC 183; assay: MIC, microtiter plate dilution assay; assay type: cell-based, Candida albicans; conditions: YMB, 5 × 10^5 CFU/ml, 37°C, OD 600 nm after 48 h
Description: as §1

[8] = tested on: C. albicans MTCC 1637; assay: MIC, microtiter plate dilution assay; assay type: cell-based, Candida albicans; conditions: YMB, 5 × 10^5 CFU/ml, 37°C, OD 600 nm after 48 h
Description: as §1

[9] = tested on: C. albicans MTCC 227; assay: MIC, microtiter plate dilution assay; assay type: cell-based, Candida albicans; conditions: YMB, 5 × 10^5 CFU/ml, 37°C, OD 600 nm after 48 h
Description: as §1

[10] = tested on: C. albicans 400054; assay: MIC, microtiter plate dilution assay, clinical strain; assay type: cell-based, Candida albicans; conditions: YMB, 37°C, OD 600 nm after 48 h
Description: (§2) Brevibacillus sp. strains GI-9 and SKDU10 were known to produce class IId bacteriocins identified as laterosporulins a ([Singh et al., 2012]; [Baindara et al., 2016]). Both strains were grown on nutrient agar (NA, Himedia, India). All test strains used in this study were obtained from Microbial Type Culture Collection and Gene bank (MTCC), Chandigarh, India. Clinical Candida strains were obtained from the National Culture Collection of Pathogenic Fungi (NCCPF), PGIMER, Chandigarh, India, and all strains were grown on recommended media.
as §1

[11] = tested on: C. auris 470126; assay: as above; assay type: cell-based; conditions: YMB, 37°C, OD 600 nm after 48 h
Description: as §2, §1

[12] = tested on: C. haemulonii 470125; assay: as above; assay type: cell-based; conditions: YMB, 37°C, OD 600 nm after 48 h
Description: as §2, §1

[13] = tested on: C. kefyr 410004; assay: as above; assay type: cell-based; conditions: YMB, 37°C, OD 600 nm after 48 h
Description: as §2, §1

[14] = tested on: C. tropicalis 420024; assay: as above; assay type: cell-based; conditions: YMB, 37°C, OD 600 nm after 48 h
Description: as §2, §1

[15] = tested on: C. krusei 440009; assay: as above; assay type: cell-based; conditions: YMB, 37°C, OD 600 nm after 48 h
Description: as §2, §1

[16] = tested on: C. parapsilosis 450030; assay: as above; assay type: cell-based; conditions: YMB, 37°C, OD 600 nm after 48 h
Description: as §2, §1

[17] = tested on: C. rugosa 470141; assay: as above; assay type: cell-based; conditions: YMB, 37°C, OD 600 nm after 48 h
Description: as §2, §1

[18] = tested on: C. acutatum MTCC1037; assay: MIC against phytopathogenic fungi, 96-well microtiter plate method; assay type: cell-based, Colletotrichum acutatum; conditions: PDB
Description: as §1

[19] = tested on: F. moniliforme MTCC 158; assay: as above; assay type: cell-based, Fusarium moniliforme; conditions: PDB
Description: as §1

[20] = tested on: A. brassicicola MTCC 2102; assay: as above; assay type: cell-based, Alternaria brassicicola; conditions: PDB
Description: as §1

[21] = tested on: S. aureus MTCC 1430; assay type: cell-based, Staphylococcus aureus; conditions: MTCC 1430, 24 h
Description: as §1

Question: Which MIC value ([1]; L. monocytogenes MTCC 839, NB, 5 × 10^5 CFU/ml, 37°C, OD 600 nm after 24 h, 10–550 μg/ml in 5 μg/ml increments) does the source give for “Dhb-Tyr-Orn-Ile-Val-Val-Lys-Val-Leu-Asp-Val-Glu [BLL, bogorol like lipopeptide purified from Brevibacillus sp. strain SKDU10; 12 amino acids and C17 hydroxy fatty acid side chain]” here?
Answer: The MIC value was 230 to 240 µg/mL.

Question: And the MIC value ([2]; V. cholerae MTCC 3904, NB, 5 × 10^5 CFU/ml, 37°C, OD 600 nm after 24 h, 10–550 μg/ml in 5 μg/ml increments)?
Answer: Its MIC value is 140 to 150 µg/mL.

Question: And the MIC value [3]?
Answer: The MIC value was 290 to 300 µg/mL.

Question: And the MIC value [4]?
Answer: Its MIC value is 340 to 360 µg/mL.

Question: What about the MIC value [5] of the same compound?
Answer: The MIC value was 290 to 310 µg/mL.

Question: What about the MIC value [6] of the same compound?
Answer: The MIC value was 100 to 110 µg/mL.

Question: What about the MIC value [7] of the same compound?
Answer: The MIC value was 150 to 170 µg/mL.

Question: And the MIC value [8]?
Answer: Its MIC value is 250 to 260 µg/mL.

Question: And the MIC value [9]?
Answer: Its MIC value is 300 to 310 µg/mL.

Question: And the MIC value [10]?
Answer: The MIC value was 240 to 260 µg/mL.

Question: And the MIC value [11]?
Answer: The MIC value was 140 to 160 µg/mL.

Question: What about the MIC value [12] of the same compound?
Answer: The MIC value was 245 to 255 µg/mL.

Question: And the MIC value [13]?
Answer: The MIC value was 190 to 210 µg/mL.

Question: What about the MIC value [14] of the same compound?
Answer: The MIC value was 300 to 320 µg/mL.

Question: What about the MIC value [15] of the same compound?
Answer: Its MIC value is 240 to 250 µg/mL.

Question: What about the MIC value [16] of the same compound?
Answer: The MIC value was 290 to 310 µg/mL.

Question: What about the MIC value [17] of the same compound?
Answer: The MIC value was 240 to 250 µg/mL.

Question: What about the MIC value [18] of the same compound?
Answer: Its MIC value is 430 to 450 µg/mL.

Question: And the MIC value [19]?
Answer: Its MIC value is 490 to 510 µg/mL.

Question: And the MIC value [20]?
Answer: Its MIC value is 500 to 520 µg/mL.

Question: What does the source list for `CC(C)CCCCCCCCCCCCC(=O)N[C@H](C(=O)NCC(=O)N[C@@H](C)C(=O)N[C@@H](CO)C(=O)N[C@@H](Cc1c[nH]cn1)C(=O)N[C@@H](CCC(N)=O)C(=O)N[C@@H](CCC(N)=O)C(=O)O)[C@@H](C)O` [ILL] (X1-TGASHQQ-OH; N-terminus assumed)?
Answer: MIC value [21]: 150 to 170 µg/mL; MIC value ([1]; MTCC 839, 24 h): 200 to 220 µg/mL; MIC value ([2]; MTCC 3904, 24 h): 105 to 115 µg/mL
